Assay results taken from patent US8791303B2, “Herbicides” (Syngenta Limited, priority 2009, dated 2014).

Experiments:
Type in all cases: in vivo
Lolium perenne (LOLPE) [1] = assay: Example A glasshouse herbicide test, post-emergence, LOLPE; conditions: Rate 250 g/ha, sprayed after 8 days cultivation, evaluated after 13 days; for pest or weed control at 250 g/ha: Lolium perenne, post-emergence, 312 h, read-out: Post-Emergence Activity LOLPE (100=total damage to plant; 0=no damage to plant)
Protocol: (§1) Seeds of a variety of test species are sown in standard soil in pots. After cultivation for one day (pre-emergence) or after 8 days cultivation (post-emergence) under controlled conditions in a glasshouse (at 24/16° C., day/night; 14 hours light; 65% humidity), the plants are sprayed with an aqueous spray solution derived from the formulation of the technical active ingredient in acetone/water (50:50) solution containing 0.5% Tween 20 (polyoxyethelyene sorbitan monolaurate, CAS RN 9005-64-5).
(§2) The test plants are then grown in a glasshouse under controlled conditions in a glasshouse (at 24/16° C., day/night; 14 hours light; 65% humidity) and watered twice daily. After 13 days for pre and post-emergence, the test is evaluated (100=total damage to plant; 0=no damage to plant).
(§3) Lolium perenne (LOLPE), Alopecurus myosuroides (ALOMY), Echinochloa crus-galli (ECHCG), Avena fatua (AVEFA)

[2] = system: Alopecurus myosuroides (ALOMY); assay: Example A glasshouse herbicide test, post-emergence, ALOMY; conditions: Rate 250 g/ha, sprayed after 8 days cultivation, evaluated after 13 days; for pest or weed control at 250 g/ha: Alopecurus myosuroides, post-emergence, 312 h, read-out: Post-Emergence Activity ALOMY (100=total damage to plant; 0=no damage to plant)
Protocol: as §1, §2, §3

[3] = system: Echinochloa crus-galli (ECHCG); assay: Example A glasshouse herbicide test, post-emergence, ECHCG; conditions: Rate 250 g/ha, sprayed after 8 days cultivation, evaluated after 13 days; for pest or weed control at 250 g/ha: Echinochloa crus-galli, post-emergence, 312 h, read-out: Post-Emergence Activity ECHCG (100=total damage to plant; 0=no damage to plant)
Protocol: as §1, §2, §3

Avena fatua (AVEFA) [4] = assay: Example A glasshouse herbicide test, post-emergence, AVEFA; conditions: Rate 250 g/ha, sprayed after 8 days cultivation, evaluated after 13 days; for pest or weed control at 250 g/ha: Avena fatua, post-emergence, 312 h, read-out: Post-Emergence Activity AVEFA (100=total damage to plant; 0=no damage to plant)
Protocol: as §1, §2, §3

Lolium perenne (LOLPE) [5] = assay: Example A glasshouse herbicide test, pre-emergence, LOLPE; conditions: Rate 250 g/ha, sprayed after cultivation for one day, evaluated after 13 days; for pest or weed control at 250 g/ha: Lolium perenne, pre-emergence, 312 h, read-out: Pre-Emergence Activity LOLPE (100=total damage to plant; 0=no damage to plant)
Protocol: as §1, §2, §3

[6] = system: Alopecurus myosuroides (ALOMY); assay: Example A glasshouse herbicide test, pre-emergence, ALOMY; conditions: Rate 250 g/ha, sprayed after cultivation for one day, evaluated after 13 days; for pest or weed control at 250 g/ha: Alopecurus myosuroides, pre-emergence, 312 h, read-out: Pre-Emergence Activity ALOMY (100=total damage to plant; 0=no damage to plant)
Protocol: as §1, §2, §3

[7] = system: Echinochloa crus-galli (ECHCG); assay: Example A glasshouse herbicide test, pre-emergence, ECHCG; conditions: Rate 250 g/ha, sprayed after cultivation for one day, evaluated after 13 days; for pest or weed control at 250 g/ha: Echinochloa crus-galli, pre-emergence, 312 h, read-out: Pre-Emergence Activity ECHCG (100=total damage to plant; 0=no damage to plant)
Protocol: as §1, §2, §3

Avena fatua (AVEFA) [8] = assay: Example A glasshouse herbicide test, pre-emergence, AVEFA; conditions: Rate 250 g/ha, sprayed after cultivation for one day, evaluated after 13 days; for pest or weed control at 250 g/ha: Avena fatua, pre-emergence, 312 h, read-out: Pre-Emergence Activity AVEFA (100=total damage to plant; 0=no damage to plant)
Protocol: as §1, §2, §3

[9] = system: Winter Wheat variety 'Hereward'; assay: Example B crop damage test, post-emergence, unsafened wheat; conditions: Rate 250 g/ha; post-emergence spray after 8 days cultivation; no safener; evaluated after 13 days
Protocol: Seeds of the Winter Wheat variety ‘Hereward’ were sown in standard soil in pots. After 8 days cultivation under controlled conditions in a glasshouse (at 24/16° C., day/night; 14 hours light; 65% humidity), the plants were sprayed post-emergence with an aqueous spray solution derived from the formulation of the technical active ingredient in acetone/water (50:50) solution containing 0.5% Tween 20 (polyoxyethelyene sorbitan monolaurate, CAS RN 9005-64-5).
(§4) The test plants were then grown in a glasshouse under controlled conditions in a glasshouse (at 24/16° C., day/night; 14 hours light; 65% humidity) and watered twice daily. After 13 days for pre and post-emergence, the test was evaluated (100=total damage to plant; 0=no damage to plant).

[10] = system: Winter Wheat variety 'Hereward'; assay: Example B crop damage test, post-emergence, wheat seed treated with safener cloquintocet mexyl; conditions: Rate 250 g/ha; post-emergence spray 8 days after sowing; seed treated with cloquintocet mexyl 0.5 g/kg dry seed; evaluated after 13 days
Protocol: Seeds of the Winter Wheat variety ‘Hereward’ were seed treated with a wettable powder formulation of the cereal herbicide safener, cloquintocet mexyl, at a rate of 0.5 grams per kilogram of dry seed prior to the initiation of glasshouse testing. One seed was sown per 1.5 inch plastic pot into a sandy loam soil at a depth of 1 cm, 8 days prior to application of the test compounds and was watered and grown under controlled conditions in a glasshouse (at 24/16° C., day/night; 14 hours light; 65% humidity). The plants were sprayed post-emergence with an aqueous spray solution derived from the formulation of the technical active ingredient in acetone/water (50:50) solution containing 0.5% Tween 20 (polyoxyethelyene sorbitan monolaurate, CAS RN 9005-64-5).
as §4

Compound	Post-Emergence Activity LOLPE (100=total damage to plant; 0=no damage to plant) (Lolium perenne (LOLPE) [1])	Post-Emergence Activity ALOMY (100=total damage to plant; 0=no damage to plant) [2]	Post-Emergence Activity ECHCG (100=total damage to plant; 0=no damage to plant) [3]	Post-Emergence Activity AVEFA (100=total damage to plant; 0=no damage to plant) (Avena fatua (AVEFA) [4])	Pre-Emergence Activity LOLPE (100=total damage to plant; 0=no damage to plant) (Lolium perenne (LOLPE) [5])	Pre-Emergence Activity ALOMY (100=total damage to plant; 0=no damage to plant) [6]	Pre-Emergence Activity ECHCG (100=total damage to plant; 0=no damage to plant) [7]	Pre-Emergence Activity AVEFA (100=total damage to plant; 0=no damage to plant) (Avena fatua (AVEFA) [8])	pest or weed control at 250 g/ha (Lolium perenne (LOLPE) [1])	pest or weed control at 250 g/ha [2]	pest or weed control at 250 g/ha [3]	pest or weed control at 250 g/ha (Avena fatua (AVEFA) [4])	pest or weed control at 250 g/ha (Lolium perenne (LOLPE) [5])	pest or weed control at 250 g/ha [6]	pest or weed control at 250 g/ha [7]	pest or weed control at 250 g/ha (Avena fatua (AVEFA) [8])	Winter Wheat (Hereward) damage (100=total damage to plant; 0=no damage to plant) [9]	Winter Wheat (Hereward) + cloquintocet mexyl damage (100=total damage to plant; 0=no damage to plant) [10]
2,2-dimethyl-propionic acid 4-(4-fluoro-benzyl)-3-oxo-2-(2,4,6-trimethyl-phenyl)-cyclopent-1-enyl ester [Compound B9]	80	70	80	20	100	90	70	40	–	–	–	–	–	–	–	–	–	–
Cc1cc(C)c(C2C(=O)C/C(=C\C3CCCCC3)C2=O)c(C)c1 (stereo not shown) [Compound A1]	–	–	–	–	–	–	–	–	80%	80%	90%	80%	100%	70%	100%	50%	60	50
Cc1cc(C)c(C2C(=O)CC(CC3CCCCC3C)C2=O)c(C)c1 (stereo not shown) [Compound A29]	–	–	–	–	–	–	–	–	90%	0%	50%	0%	90%	50%	90%	50%	–	–
COC1CCC(/C=C2\CC(=O)C(c3c(C)cc(C)cc3C)C2=O)CC1 (stereo not shown) [Compound A39, 4-[1-(4-Methoxy-cyclohexyl)-meth-(E)-ylidene]-2-(2,4,6-trimethyl-phenyl)-cyclopentane-1,3-dione]	–	–	–	–	–	–	–	–	50%	90%	100%	90%	50%	60%	100%	80%	–	–
CC(=O)OC1CCC(CC2CC(=O)C(c3c(C)cc(C)cc3C)=C2OC(=O)C(C)(C)C)CC1 (stereo not shown) [Compound B4]	–	–	–	–	–	–	–	–	90%	60%	70%	80%	–	–	–	–	–	–
Cc1cc(C)c(C2=C(OC(=O)C(C)(C)C)C(CC3CCC(=NO)CC3)CC2=O)c(C)c1 (stereo not shown) [Compound B5]	–	–	–	–	–	–	–	–	–	–	–	–	90%	70%	70%	40%	40	10
Cc1cc(C)c(C2=C(OC(=O)C(C)(C)C)CC(Cc3cccc(Oc4ccccc4)c3)C2=O)c(C)c1 (stereo not shown) [Compound B7]	–	–	–	–	–	–	–	–	20%	20%	20%	0%	20%	30%	0%	0%	–	–
Cc1cc(C)c(C2=C(OC(=O)C(C)(C)C)CC(Cc3ccc(F)cc3)C2=O)c(C)c1 (stereo not shown) [Compound B8]	–	–	–	–	–	–	–	–	70%	40%	40%	20%	100%	70%	50%	30%	–	–
Cc1cc(C)c(C2=C(OC(=O)C(C)(C)C)CC(Cc3ccccc3C)C2=O)c(C)c1 (stereo not shown) [Compound B10]	–	–	–	–	–	–	–	–	90%	50%	40%	30%	100%	30%	30%	20%	–	–
Cc1cc(C)c(C2=C(OC(=O)C(C)(C)C)CC(Cc3ccccc3)C2=O)c(C)c1 (stereo not shown) [Compound B12]	–	–	–	–	–	–	–	–	90%	60%	50%	30%	90%	30%	40%	20%	–	–
Cc1cccc(CC2CC(OC(=O)C(C)(C)C)=C(c3c(C)cc(C)cc3C)C2=O)c1 (stereo not shown) [Compound B13]	–	–	–	–	–	–	–	–	80%	60%	60%	30%	70%	40%	60%	20%	–	–
Cc1cc(C)c(C2=C(OC(=O)C(C)(C)C)CC(Cc3ccc(C#N)cc3)C2=O)c(C)c1 (stereo not shown) [Compound B14]	–	–	–	–	–	–	–	–	60%	70%	70%	50%	80%	60%	50%	10%	–	–
Cc1cc(C)c(C2=C(OC(=O)C(C)(C)C)CC(Cc3cc(F)cc(F)c3)C2=O)c(C)c1 (stereo not shown) [Compound B15]	–	–	–	–	–	–	–	–	70%	10%	50%	10%	70%	20%	40%	20%	–	–
Cc1cc(C)cc(CC2CC(OC(=O)C(C)(C)C)=C(c3c(C)cc(C)cc3C)C2=O)c1 (stereo not shown) [Compound B16]	–	–	–	–	–	–	–	–	40%	30%	50%	10%	80%	40%	50%	10%	–	–
Cc1cc(C)c(C2=C(OC(=O)C(C)(C)C)CC(Cc3ccc(S(C)(=O)=O)cc3)C2=O)c(C)c1 (stereo not shown) [Compound B18]	–	–	–	–	–	–	–	–	50%	70%	80%	80%	70%	60%	80%	60%	–	–
COc1ccc(CC2CC(OC(=O)C(C)(C)C)=C(c3c(C)cc(C)cc3C)C2=O)cc1 (stereo not shown) [Compound B19]	–	–	–	–	–	–	–	–	80%	80%	30%	60%	80%	40%	10%	30%	–	–
